Results reported in the NIST ThermoML archive (doi:10.1016/j.jct.2009.07.010).
± gives the expanded uncertainty stated by the source.

Conditions: 298.15 K; 101.33 kPa; Liquid; Vibrating tube method

CCn1cc[n+](C)c1.O=S(=O)([O-])C(F)(F)F [1-ethyl-3-methylimidazolium trifluoromethanesulfonate]
mass density: 1387.07 ± 2.2 kg/m3
